Where only a bound is given, the exact number is not on record here.

In one assay the target is Neutrophil collagenase (Homo sapiens, UniProt P22894).
Sequence of Neutrophil collagenase (P22894 whole entry): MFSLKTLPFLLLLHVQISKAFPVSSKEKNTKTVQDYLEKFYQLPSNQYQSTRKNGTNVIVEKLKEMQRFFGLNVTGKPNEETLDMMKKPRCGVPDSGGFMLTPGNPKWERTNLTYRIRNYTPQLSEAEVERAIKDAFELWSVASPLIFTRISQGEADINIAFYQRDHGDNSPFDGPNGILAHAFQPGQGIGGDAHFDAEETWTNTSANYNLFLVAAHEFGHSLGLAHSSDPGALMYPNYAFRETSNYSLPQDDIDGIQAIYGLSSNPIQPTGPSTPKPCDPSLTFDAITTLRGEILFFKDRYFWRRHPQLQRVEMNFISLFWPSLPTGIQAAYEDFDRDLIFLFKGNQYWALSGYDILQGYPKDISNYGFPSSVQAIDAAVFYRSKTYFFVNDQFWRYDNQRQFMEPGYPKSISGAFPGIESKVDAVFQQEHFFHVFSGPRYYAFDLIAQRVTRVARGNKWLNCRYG
As a reminder, the Ki is the equilibrium dissociation constant of an inhibitor or competing ligand from its target. Higher therefore signals a looser hold on the target. As to `CCCC(=O)NCCCC[C@H](CC(=O)NO)C(=O)N[C@@H](Cc1ccccc1)C(=O)NC`, the affinity, expressed as Ki, was 12 nM.
Compound `CNC(=O)[C@H](Cc1ccccc1)NC(=O)[C@H](CCCCOc1ccccc1)CC(=O)NO` gave a Ki of under 2 nM.
`CNC(=O)[C@H](Cc1ccccc1)NC(=O)[C@H](CCCC(=O)NCc1ccccc1)CC(=O)NO` displayed a Ki of 30 nM. In other words, the double-digit nanomolar range.
On to `CNC(=O)[C@H](Cc1ccccc1)NC(=O)[C@H](CCCCCOc1ccccc1)CC(=O)NO`, for which the Ki was under 2 nM.
In turn, `CCCNC(=O)CCC[C@H](CC(=O)NO)C(=O)N[C@@H](Cc1ccccc1)C(=O)NC` registered an inhibition constant (Ki) of 2 nM.
`CNC(=O)[C@H](Cc1ccccc1)NC(=O)[C@H](CCCCCOCc1ccccc1)CC(=O)NO`: the Ki was 2 nM. In other words, the single-digit nanomolar range.
The same measure, in the same setting: the value for `CNC(=O)[C@H](Cc1ccccc1)NC(=O)[C@H](CCCC(=O)NCCc1ccccc1)CC(=O)NO` was 32 nM; that for `CNC(=O)[C@H](Cc1ccccc1)NC(=O)[C@H](CCCCCO)CC(=O)NO` was 4 nM.

In a further assay the target is T1, Interstitial collagenase (Homo sapiens, UniProt P03956).
T1 sequence (P03956 whole entry): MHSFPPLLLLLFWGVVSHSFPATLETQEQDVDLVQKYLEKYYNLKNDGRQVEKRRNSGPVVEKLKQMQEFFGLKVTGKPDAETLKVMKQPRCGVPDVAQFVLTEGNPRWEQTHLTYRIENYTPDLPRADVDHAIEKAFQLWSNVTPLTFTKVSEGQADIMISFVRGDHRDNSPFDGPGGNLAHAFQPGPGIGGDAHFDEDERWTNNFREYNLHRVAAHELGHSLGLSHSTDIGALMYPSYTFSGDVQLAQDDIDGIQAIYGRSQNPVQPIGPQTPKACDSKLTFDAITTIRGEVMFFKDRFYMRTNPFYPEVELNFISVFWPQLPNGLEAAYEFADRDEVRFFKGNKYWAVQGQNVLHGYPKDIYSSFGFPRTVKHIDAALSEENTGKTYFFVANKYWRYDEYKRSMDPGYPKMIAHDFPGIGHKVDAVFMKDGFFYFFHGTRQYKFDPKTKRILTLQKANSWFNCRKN
Regarding `CC(C)(C)[C@H](NC(=O)[C@H](CCCCOc1ccccc1)CC(=O)NO)C(=O)NCCC(=O)O`, the Ki was 140 nM.
The compound `CNC(=O)[C@@H](NC(=O)[C@H](CCCCOc1ccc(C(C)(C)C)cc1)CC(=O)NO)C(C)(C)C` gave a Ki of 350 nM.
In turn, `CNC(=O)[C@@H](NC(=O)[C@H](CCCCOc1ccc(Cl)c(Cl)c1)CC(=O)NO)C(C)(C)C` displayed an inhibitory constant (Ki) of 95 nM.
Take `CNC(=O)[C@@H](NC(=O)[C@H](CCCCOc1ccccc1)CC(=O)NO)C(C)(C)C`: the Ki came to 3 nM.
`CC(C)(C)[C@H](NC(=O)[C@H](CCCCOc1ccc(Cl)cc1)CC(=O)NO)C(=O)NCCCN1CCOCC1` displayed a Ki of 10 nM. This Ki is about 3.3-fold higher than that of the compound before.
Still for that read-out and setting: the value for `CNC(=O)[C@@H](NC(=O)[C@H](CCCCOc1ccc(F)cc1)CC(=O)NO)C(C)(C)C` was 11 nM; that for `CCCCCc1ccc(OCCCC[C@H](CC(=O)NO)C(=O)N[C@H](C(=O)NC)C(C)(C)C)cc1` was 1900 nM; that for `CC(C)(C)[C@H](NC(=O)[C@H](CCCCOc1ccc(Cl)cc1)CC(=O)NO)C(=O)NCCc1ccccc1` was 580 nM.
The same measure, in the same setting: next, `CNC(=O)[C@H](Cc1ccccc1)NC(=O)[C@H](CCCC(=O)NCc1ccccc1)CC(=O)NO`: 9600 nM; `CC(C)(C)[C@H](NC(=O)[C@H](CCCCOc1ccccc1)CC(=O)NO)C(=O)NCCCC(=O)O`: 62 nM; `CNC(=O)[C@@H](NC(=O)[C@H](CCCCOc1cccc(Cl)c1)CC(=O)NO)C(C)(C)C`: 143 nM.
Turning to `CNC(=O)[C@@H](NC(=O)[C@H](CCCCOc1ccc(OC)cc1)CC(=O)NO)C(C)(C)C`, the Ki was under 1 nM.
For `CC(C)(C)[C@H](NC(=O)[C@H](CCCCOc1ccc(Cl)cc1)CC(=O)NO)C(=O)NCCc1ccc(S(N)(=O)=O)cc1`, affinity was put at a Ki of 61 nM.
Compound `CNC(=O)[C@@H](NC(=O)[C@H](CCCCOc1cccc(C)c1)CC(=O)NO)C(C)(C)C` had a Ki of 16 nM. This Ki lies about 3.8-fold lower than the previous one.
`CNC(=O)[C@H](Cc1ccccc1)NC(=O)[C@H](CCCCO)CC(=O)NO`: the Ki turned out to be 64 nM. This Ki is about 4-fold higher than that of the compound before.
`CNC(=O)[C@H](Cc1ccccc1)NC(=O)[C@H](CCCC(=O)NCCc1ccccc1)CC(=O)NO` displayed a Ki of 1300 nM. This Ki lies about 20-fold higher than the previous one.
Still for that read-out and setting: the value for `CNC(=O)[C@H](Cc1ccccc1)NC(=O)[C@H](CCCCCO)CC(=O)NO` was 31 nM; that for `CC(C)(C)[C@H](NC(=O)[C@H](CCCCOc1ccc(Cl)cc1)CC(=O)NO)C(=O)NCCc1ccccn1` was 80 nM; that for `CCCc1ccc(OCCCC[C@H](CC(=O)NO)C(=O)N[C@H](C(=O)NC)C(C)(C)C)cc1` was 170 nM.
In turn, `CC(C)(C)[C@H](NC(=O)[C@H](CCCCOc1ccc(Cl)cc1)CC(=O)NO)C(=O)NCCN1CCCC1` gave a Ki of 80 nM.
As for `CNC(=O)[C@@H](NC(=O)[C@H](CCCCOc1ccc(C(C)C)cc1)CC(=O)NO)C(C)(C)C`, the Ki amounted to 30 nM.
The compound `CNC(=O)[C@@H](NC(=O)[C@H](CCCCOc1cccc(OC)c1)CC(=O)NO)C(C)(C)C` displayed a Ki of 72 nM.

These data come from ChEMBL document CHEMBL1128428, “Inhibition of matrix metalloproteinases by hydroxamates containing heteroatom-based modifications of the P1' group” (J Med Chem, 1995).
